Earlier results in US12042566B2, “Formulations of homotaurines and salts thereof” (Confluence Pharmaceuticals, LLC, priority 2017, dated 2024).

Key:
[1] = humans, reportedly
[2] = high solubility and low passive permeability

CC(=O)NCCCS(=O)(=O)O [acamprosate, 3-(Acetylamino)propylsulfonic acid]
oral bioavailability [1]: about 11%
Biopharmaceutics Classification System (BCS) class [2]: Class III
